Measurements as given in patent US20090197957A1, “Methods and compositions for the treatment of pain” (Nuon Therapeutics, Inc., priority 2005, published 2009).

Key:
[1] = system: mechanical and thermal allodynia in CIA; assay: Allodynia assessment in arthritic mice (Plantar Von-Frey, Hargreaves test); assay type: in vivo
Description: FIG. 6 is an image depicting that 3,4-DAA inhibits mechanical and thermal allodynia, and inhibits astrocytic activation in arthritic mice. Mechanical (a) and thermal (b) allodynia, and paw swelling (c) and clinical score (d) were assessed in naïve mice on the day of arthritis onset, and up to 10 days following therapy with 200 mg/kg 3,4-DAA, […] dexamethasone, or vehicle. […] Whilst 3,4-DAA therapy reduced astrocytic activation (bottom right panel) dexamethasone had no action on GFAP levels (bottom left panel). Quantification of the number of hyper-plastic astrocytes in the spinal cord 10 days following onset of arthritis was performed (f).
The pain thresholds of the mice were assessed prior to immunization (naïve) on day of onset (day 0) and up to 10 days following therapy with 3,4-DAA (200 mg/kg/day), dexamethasone (0.5 mg/kg/2 days) or vehicle alone (n=9 per group). The Ugo Basile 37400 Plantar Von-Frey microprocessor controlled unit was used to assess mechanical hyperalgesia and Ugo Basile 7370-6 Plantar Test (Hargreaves test) was used to assess thermal hyperalgesia. Mechanical hyperalgesia was assessed by applying an increasing force to the hind paw at the rate of 3 g/second, and measuring the force required to elicit lifting of the paw. Thermal hyperalgesia was assessed by applying an increasing infrared source (intensity 50), and measuring the time required for lifting of the paw.

[2] = system: draining (inguinal) lymph node cells; assay: Lymph node cell cytokine responses from treated CIA mice (72 h culture, ELISA); assay type: in vivo
Description: FIG. 4 is a graphical representation of the results of mice with established CIA being treated for 10 days with 3,4-DAA or vehicle control. Mice were then killed and draining (inguinal) lymph node cells were cultured for 72 h in the absence or presence of type II collagen.
Inguinal lymph nodes were excised from 3,4-DAA-treated and control mice. Alternatively, inguinal lymph nodes were removed from untreated arthritic mice (day 1-5 of arthritis) and 3,4-DAA was added in vitro. In both cases, a single cell suspension was prepared and LNC were cultured in RPMI 1640 containing FCS (10% v/v), 2-mercaptoethanol (20 μM), L-glutamine (1% w/v), penicillin (100 U/ml) and streptomycin (100 μg/ml) in the presence or absence of type II collagen (50 μg/ml). Secreted cytokines (IFN-γ, IL-5, and IL-10) were measured after 72 h. by ELISA. In brief, 96 well ELISA plates were coated with the respective capture antibody, blocked with bovine serum albumin (2% w/v), and then incubated with LNC culture supernatants overnight at 4° C. After washing, bound cytokines were detected using biotinylated detect antibodies. A standard curve was generated using known concentrations of the appropriate recombinant cytokine and the concentrations of cytokines present in culture supernatants were estimated by reference to the standard curve.
At the end of the experiment draining (inguinal) LNC from control and treated mice were cultured for 72 h in the presence or absence of type II collagen. IFN-γ, IL-5 and IL-10 production was measured by ELISA.

purified T cells = assay: T cell proliferation in vitro (anti-CD3/anti-CD28, 3H-thymidine incorporation); assay type: cell-based; details: anti-CD3/anti-CD28 stimulation, 72 h; for IC50: T-cell, read-out: IC50 for inhibition of T cell proliferation; for T cell proliferation: varying doses
Description: (§1) FIG. 7 is a graphical representation depicting that 3,4-DAA and 3-HAA inhibit B and T cell proliferation in vitro. Purified B and T cells were stimulated for 72 h with anti-CD40 (a), or anti-CD3/anti-CD28 (b) respectively, in the presence of varying doses of 3,4-DAA, or 3-HAA.
(§2) A single cell suspension was prepared by pushing splenic tissue through a cell strainer, and erythrocytes were lysed using an ammonium chloride solution (Sigma, St Louis, Mo.). B cells were positively enriched by using anti-IgM microbeads (BD Pharmingen), and T cells were positively enriched using anti-CD4 MACS microbeads, according to the manufacturer's guidelines (Miltenyi Biotec, Bergisch Gladbach, Germany). Purity was assessed by flow cytometric analysis (B cell>90% CD19+, T cell>90% CD4+). Cells were cultured at 5×10^5 cells/ml in 200 μl complete RPMI, as above, in a flat bottom 96-well plate and cultured for 72 h. B cells were stimulated with anti-CD40 monoclonal antibody (10 μg/ml; BD), and T cells were stimulated with 5 μg/ml plate-bound anti-CD3 (ebiosciences) plus 5 μg/ml soluble anti-CD28 (ebiosciences). 3,4-DAA, 3-HAA, or vehicle (DMSO) was added at graded concentrations immediately prior to stimulation. 48 hours after stimulation, 100 μl culture medium was collected, and cells were pulsed with 1 μCi ^3H thymidine per well for 18 h. Cells were then harvested and plates assessed for thymidine incorporation. Each assay was performed on a minimum of 3 occasions. IFN-γ, IL-10 and IL-5 levels were assessed in the culture medium by ELISA, as above.
(§3) Activation of purified B (FIG. 7a) and T cells (FIG. 7b) was induced by anti-CD40, and anti-CD3/CD28 respectively, and proliferation was assessed by ^3H-thymidine incorporation. […] Inhibition of proliferation was also observed when B cells were stimulated with LPS or anti-IgM. […] It was concluded that the effects of 3,4-DAA and 3-HAA on T and B cells in vitro were remarkably similar, though not identical. It is of also note that 3-HAA had no action on inflammation or allodynia, when administered therapeutically in CIA at doses of up to 400 mg/kg/day.

T-cells = assay: Cytokine production by stimulated T cells in vitro (ELISA); assay type: cell-based; details: anti-CD3/anti-CD28 stimulation, graded concentrations
Description: as §1, §2, §3

[3] = established arthritis, up to 10 days therapy, 3,4-DAA 200 mg/kg/day, dexamethasone 0.5 mg/kg/2 days

Structure (SMILES) | mechanical allodynia [1, 3] | thermal allodynia [1, 3] | differences between the groups in cytokine production on re-stimulation with collagen ([2]; 72 h culture in presence of type II collagen) | IFN-γ production by lymph node cells ([2]; mice given 400 mg/kg (b205 prints 400 mg/mouse) for 10 days, 72 h culture without collagen) | IL-10 production by lymph node cells ([2]; mice treated for 10 days, 72 h culture) | IC50 (purified T cells) | T cell proliferation (purified T cells) | IFN-γ production by T-cells (T-cells) | IL-5 production by T-cells (T-cells) | IL-10 production by T-cells (T-cells) | action on allodynia in CIA ([1]; administered therapeutically at doses of up to 400 mg/kg/day)
COc1ccc(/C=C/C(=O)Nc2ccccc2C(=O)O)cc1OC [Tranilast, 2-[[3-(3,4-dimethoxyphenyl)-1-oxo-2-propenyl]amino]benzoic acid] | abolished | abolished | not significant | significantly reduced | no IL-10 was detected | 28 µM | dose-dependently inhibited | dose-dependently reduced | dose-dependently inhibited | dose-dependently inhibited | 
Nc1c(O)cccc1C(=O)O [3-Hydroxyanthranilic acid] |  |  |  |  |  | 100 µM | dose-dependently inhibited | dose-dependently reduced | increased | increased | no action
